Assay results taken from patent publication US8536304B2, “Tumour-associated peptides that bind to MHC molecules” (Immatics Biotechnologies GmbH, priority 2002, dated 2013).

Columns and labels:
Format in all cases: cell-based, human
[1] = test system: CD8+-T-lymphocytes; experiment: HLA-A*0201-tetramer staining of peripheral blood mononuclear cells from healthy individuals
Text: Peripheral blood mononuclear cells from healthy patients were stained with HLA-A*0201-tetramers which were folded with adipophilin-, keratin 18- or met-protooncogene (c-Met)-peptides: For generation of the tetramers, recombinant HLA-A*0201-molecules were folded in vitro with the peptides […] (SEQ ID No. 2, adipophilin), […] (SEQ ID No. 3, keratin 18) or […] (SEQ ID No. 1, met-protooncogene, c-Met), purified by means of gel filtration, biotinylated and mixed with streptavidin to link the monomers.
In FIG. 1, the results of double staining are shown in dotplots, whereby in the middle row the results of staining with keratin 18 is shown. Between 0.02 and 0.2% of the CD8^+-positive T-cells were specific for keratin 18.

[2] = test system: 51Cr-labeled U 266; experiment: Lysis-inhibition assay with cold peptide-pulsed T2 inhibitor cells, target U 266; details: c-Met-peptide-induced CTL, inhibitor:target 20:1, FIGS. 4a and 4b
Protocol: (§1) To further verify the antigen-specificity and the MHC-restriction of the in-vitro-induced CTL, inhibition assays with non-^51Cr-labeled (“cold”) inhibitor cell lines were performed.
(§2) In doing so, the ability of peptide-pulsed cell lines was analyzed to inhibit the lysis of tumor cells (competition assay). For this purpose, an excess of inhibitor (that is an excess of unlabeled pulsed cells) was used. The ratio of inhibitor (peptide-pulsed cells) to target (tumor cells) was 20:1. When inhibitor cell lines were lysed, no ^51Cr was released, since the inhibitor cell lines were unlabeled.
(§3) Cell line T2 (HLA-A*02; TAP-deficient; see under 2.5.a) was used as inhibitor. Previous to the assay, this cell line T2 was pulsed with the relevant peptides (SEQ ID NOS:1 or 2) or an irrelevant control peptide (Survivin (=Sv), SEQ ID NO:80), respectively.
(§4) In FIGS. 4a and 4b, lysis of the ^51Cr-labeled cell lines U 266 and A 498 was tested without inhibitor cell line (see the curve with black filled boxes); lysis with inhibitor cell line T2, pulsed with an irrelevant peptide (Survivin; SEQ ID NO:80; negative control, curves with the filled triangles); and lyses with the inhibitor cell line T2 pulsed with the c-Met-peptide with SEQ ID NO:1 (curves with the empty rhombus).

[3] = test system: autologous DC of CLL patient; experiment: 51Cr-release assay, CTL of CLL patient against autologous peptide-pulsed DC; details: adipophilin-peptide-induced CTL of CLL patient; FIG. 6
Protocol: In the CTL-assays, tumor cells, peptide-pulsed cells of different cell lines and autologous DC were used as target cells. Peptide-pulsed cells were pulsed with 50 μg/ml peptide (SEQ ID No. 1 or SEQ ID No. 2) for 2 hours. All target cells were labeled with [^51Cr] sodium chromate in RP10 (RPMI 1640, supplemented with 10% heat inactivated calf serum and antibiotics) for 1 hour at 37° C. Subsequently, 10^4 cells/well were transferred to a 96-well round bottomed plate. Varying numbers of CTL were added to give a final volume of 200 μl and incubated for 4 hours at 37° C. At the end of the assays, supernatants (50 μl/well) were harvested and counted in a beta-plate counter. […] The spontaneous and maximal release were determined in the presence of either medium or 2% Triton X-100, respectively.
In a further experiment, CTL were generated from PBMNC of HLA-A*0201-positive patient with chronic lymphatic leukemia (CLL), which were specific for adipophilin-peptide with SEQ ID NO:2. The patient was in remission after treatment with fludarabine. Further, autologous CLL-cells and DC of this patient were used as ^51Cr-labeled targets in an assay, in which ^51Cr-release is mediated by the peptide-induced CTL.

[4] = test system: 51Cr-labeled A 498; experiment: Lysis-inhibition assay with cold peptide-pulsed T2 inhibitor cells, target A 498
Protocol: as §1, §2, §3, §4
With these inhibition assays, the cells were incubated with 10 μg/ml antibody previous to seeding on the 96-well-plates for 30 min.

| Sequence | healthy individuals with a significant population of specific CD8+-T-lymphocytes [1] | lysis of 51Cr-labeled tumor cells in presence of unlabeled T2 inhibitor cells pulsed with the peptide [2] | lysis of autologous DC pulsed with the peptide [3] | inhibition of CTL-induced lysis of tumor cell line by T2 cells pulsed with the peptide ([4]; adipophilin-peptide-induced CTL, FIG. 4c) | lysis of 51Cr-labeled tumor cells in presence of unlabeled T2 inhibitor cells pulsed with the peptide ([4]; c-Met-peptide-induced CTL, inhibitor:target 20:1, FIGS. 4a and 4b) |
| --- | --- | --- | --- | --- | --- |
| ALLNIKVKL (listed as Homo sapiens) [SEQ ID No. 3, HLA-A*02 ligand, keratin 18 365-373] | four out of 22 | – | – | – | – |
| ELTLGEFLKL (listed as Homo sapiens) [Survivin, irrelevant control peptide, reference compound] | – | not able to inhibit | not lysed | not able to inhibit | not able to inhibit |
